# Data published in patent US12643893B2, “Heteroaryl-pyridinium compound and redox flow battery comprising the same” (Korea Advanced Institute of Science and Technology, priority 2021, dated 2026).
# Legend:
# [1] = Cyclic voltammetry (CV) in three-electrode cells; format: physicochemical; conditions: for Peak to peak potential difference (ΔEp) / Ratio of anodic peak current (Ipa) to cathodic peak current (Ipc) (Ipa/Ipc) @50 mV s^−1: 1st event (or only value); for potential shift after CV cycles: FIG. 7
# Protocol: All electrochemical examinations were carried out using a Biologic VMP3 electrochemical workstation in an Ar-filled glove box (MOTek, negligible O2 and H2O, tested by the ketyl solution).
# Cyclic voltammetry (CV) was conducted in three-electrode cells comprised of glassy carbon (GC; diameter (d)=3 mm) as the working electrode (WE), a platinum wire as the counter electrode (CE), and a leak-free Ag/AgCl as the reference electrode (RE). The GC electrodes were polished using alumina slurry before testing (ALS Co., Ltd).
# After CV analysis, ferrocene (Fc, ferrocene, 98%, Sigma-Aldrich) was added to the cell to measure its redox potential, and the measured sample potential was converted to the Fc/Fc^+.
# [2] = Solubility test (UV-vis calibration curves, maximum solubility); conditions: for solubility: organic solvent or mixture, thermodynamic from solid
# [3] = Rotating disk electrode LSV, diffusion coefficient (Levich equation); format: physicochemical
# Protocol: To measure diffusion coefficient (D), rotating disk electrode (RDE; ALS Co., Ltd) measurements were conducted with the same three-electrode cells. […] Limited mass-transport provides a current plateau (iL) of redox processes, which is linearly proportional to the square root of the rotating rates (ω^1/2). The diffusion coefficient (D) was calculated by plotting IL as a function of ω^1/2 and through the Levich equation (equation S1). iL=0.620nFAD^2/3ω^1/2η^−1/6Co (equation S1)
# where IL is the limiting current (A cm^−2), n is the number of electrons transferred during the redox reaction, F is the Faraday's constant (96485 C mol^−1), A is the area of the electrode (0.0707 cm^2), D is the diffusion coefficient (cm^2 […]), ω is the angular rotation rate (rad s^−1), η is the kinematic viscosity (0.00442 cm^2 s^−1, referred to 0.1 M TBAPF6/MeCN), and Co is the concentration of the sample chemical.
# [4] = Electron-transfer rate from CV curves (Nicholson method); format: physicochemical
# Protocol: The electron-transfer rate (k^0) was calculated from CV curves and using the Nicholson method(equation S2).
# where k^o is the electron-transfer constant (cm/s), D is the diffusion coefficient estimated from the above RDE studies, R is the gas constant (8.314 J K^−1 mol^−1), T is the temperature (298 K), v is the scan rate of the CVs (mV s^−1).
# The Ψ value was obtained by Kingler and Kochi relation (equation S3).
# where ΔEp is the peak-to-peak potential for the corresponding reduction or oxidation event.
# [5] = after 100 cycles (in parentheses)
# [6] = initial, 10 mM in 0.1 M TBABF4/MeCN
# [7] = 1st redox event (or the only value given), 10 mM in 0.1 M TBABF4/MeCN
# [8] = 2nd redox event, 10 mM in 0.1 M TBABF4/MeCN
# [9] = MeCN, Solubility (M) in MeCN, in MeCN
# [10] = 1st event (single value for BTMAP-Fc), after 100 cycles (in parentheses)
# [11] = 1st event (single value for BTMAP-Fc), initial
# [12] = 1st redox event (single value for BTMAP-Fc), 4 mM in 0.1 M TBATFSI/MeCN
# [13] = 2nd event, after 100 cycles (in parentheses)
# [14] = 2nd redox event, 4 mM in 0.1 M TBATFSI/MeCN
# [15] = c1, first cathodic event (single value for BTMAP-Fc, oxidation process)
# [16] = 0.5 M TBATFSI in MeCN, Solubility 0.5M TBATFSI/MeCN (M), electrolyte solution 0.5M TBATFSI/MeCN
# [17] = 0.5 M TBATFSI in MeCN, maximum solubility in electrolyte solution, 0.5 M TBATFSI/MeCN
# [18] = MeCN, Solubility MeCN (M), in MeCN
Structure (SMILES),"Peak to peak potential difference (ΔEp) [1, 5]","Ratio of anodic peak current (Ipa) to cathodic peak current (Ipc) (Ipa/Ipc) @50 mV s^−1 [1, 5]","Peak to peak potential difference (ΔEp) [1, 6]","Ratio of anodic peak current (Ipa) to cathodic peak current (Ipc) (Ipa/Ipc) @50 mV s^−1 [1, 6]","Formal potential (E^o′) [1, 7]","Formal potential (E^o′) [1, 8]",potential shift after CV cycles [1],"solubility [2, 9] [M]","Ipa/Ipc @50 mV s^−1 [1, 10]","ΔEp [1, 10]","Ipa/Ipc @50 mV s^−1 [1, 11]","ΔEp [1, 11]","E^o′ [1, 12]","Ipa/Ipc @50 mV s^−1 [1, 13]","ΔEp [1, 13]","Ipa/Ipc @50 mV s^−1 ([1]; 2nd event, initial)","ΔEp ([1]; 2nd event, initial)","E^o′ [1, 14]","D (diffusion coefficient) [3, 15]","D (diffusion coefficient) ([3]; c2, second cathodic event)",further results
"CCCCCC[n+]1ccc(-c2nc3ccccc3s2)cc1 [Hex-BTP^+·BF4^−, 4-(benzo[d]thiazol-2-yl)-1-hexylpyridin-1-ium tetrafluoroborate]",124 mV,0.99,125 mV,0.98,1st = −1.36 V vs. Fc/Fc^+,2nd = −2.13 V vs. Fc/Fc^+,positive (+) potential shift,0.23,–,–,–,–,–,–,–,–,–,–,–,–,–
"COCC[n+]1ccc(-c2nc3ccccc3s2)cc1 [MOE-BTP^+·BF4^−, 4-(benzo[d]thiazol-2-yl)-1-(2-methoxyethyl)pyridin-1-ium tetrafluoroborate]",107 mV,0.98,104 mV,1.00,1st = −1.24 V vs. Fc/Fc^+,2nd = −1.97 V vs. Fc/Fc^+,positive (+) potential shift,0.1,–,–,–,–,–,–,–,–,–,–,–,–,–
"C[n+]1ccc(-c2nc3ccccc3s2)cc1 [BTP^+·TFSI^−, 4-(benzo[d]thiazol-2-yl)-1-methylpyridin-1-ium bistriflimide]",–,–,–,–,–,–,–,–,(0.99),1st = 99 (99) mV,1st = 1.01,1st = 99 (99) mV,1st = −1.21 V vs. Fc/Fc^+,(0.87),84 mV,2nd = 0.95,93 mV,2nd = −1.90 V vs. Fc/Fc^+,c1 = 3.71 X10^−6 cm^2 s^−1,c2 = 3.32 X10^−6 cm^2 s^−1,"Formal potential (E^o′) ([1]; first redox event (single event for BTMAP-Fc), CV, 4 mM in 0.1 M TBATFSI/MeCN): −1.21 V vs. Fc/Fc^+; peak-to-peak potential difference (ΔEp) ([1]; maintained for 100 CV cycles): ~99 mV; anodic-to-cathodic peak current ratio (Ipa/Ipc) ([1]; preserved during 100 CV cycles): 1.01; Formal potential (E^o′) ([1]; second redox event, CV, 4 mM in 0.1 M TBATFSI/MeCN): −1.90 V vs. Fc/Fc^+; k^o (electron-transfer constant) [4, 15]: c1 = 0.086 cm s^−1; k^o (electron-transfer constant) ([4]; c2, second cathodic event): c2 = 0.090 cm s^−1; solubility [2, 16]: 0.47 M; solubility [2, 17]: 0.47 M; solubility [2, 18]: 1 M"
"C[N+](C)(C)CCC[n+]1ccc(-c2nc3ccccc3s2)cc1 [TMAP-BTP^2+·2TFSI^−, 4-(benzo[d]thiazol-2-yl)-1-(3-(trimethylammonio)propyl)pyridin-1-ium bistriflimide]",–,–,–,–,–,–,–,–,(0.97),(105) mV,1st = 0.97,1st = 105 mV,1st = −1.19 V vs. Fc/Fc^+,(1.18),(85) mV,2nd = 1.08,2nd = 94 mV,2nd = −1.87 V vs. Fc/Fc^+,c1 = 1.91 X10^−6 cm^2 s^−1,c2 = 1.91 X10^−6 cm^2 s^−1,"k^o (electron-transfer constant) [4, 15]: c1 = 0.114 cm s^−1; k^o (electron-transfer constant) ([4]; c2, second cathodic event): c2 = 0.124 cm s^−1; solubility [2, 16]: 0.34 M; solubility [2, 17]: 0.34 M; solubility [2, 18]: 0.89 M"
"Cn1c(-c2cc[n+](C)cc2)nc2ccccc21 [BIP^+·BF4^−, 1-methyl-4-(1-methyl-1H-benzo[d]imidazol-2-yl)pyridin-1-ium tetrafluoroborate]",99 (99) mV,0.73,99 (99) mV,0.71,−1.41 V vs. Fc/Fc^+,–,–,–,–,–,–,–,–,–,–,–,–,–,–,–,–
"C[n+]1ccc(-c2nc3ccccc3s2)cc1 [BTP^+·BF4^−, 4-(benzo[d]thiazol-2-yl)-1-methylpyridin-1-ium tetrafluoroborate]",–,–,–,–,–,–,–,–,–,–,–,–,–,–,–,–,–,–,–,–,"solubility ([2]; 0.5 M TBABF4 in MeCN, maximum solubility in electrolyte solution, 0.5 M TBABF4/MeCN): 0.087 M; Solubility (M) 0.5M TBAPF6/MeCN ([2]; electrolyte solution, head prints 0.5M TBAPF6/MeCN): 0.087 M; Solubility (M) MeCN ([2]; in MeCN): 0.26 M; Solubility (M) in MeCN ([2]; in MeCN): 0.26 M; maximum solubility in MeCN ([2]; in MeCN): 260 mM"
